According to PubChem BioAssay AID2060884 (Molecular Pharmacology Branch, DTP, NCI, 2025):
Each block holds one molecule with its values, some of them ahead of it.

System: NCI-H929 complex spheroids, viability % test/control
Experiment: Anticancer human tumor NCI-H929 cell line growth inhibition [RAS];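 note: compound exposure lasted seven days before viability was read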;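 for viability, T/C: 100% = DMSO vehicle control viability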
Details: for IC50: curve of first compound; for viability, T/C: stronger effect = lower value
Summary of the method: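 Multi-cell-type spheroids: tumor cells plus HUVEC endothelial cells and mesenchymal stem cells. RAS-pathway inhibitors were combined with targeted agents, each dosed in half-log steps down from clinical Cmax, or from 10 microM when Cmax was unknown.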

[1] = second compound 0.0316 µM, first compound 0.0316 µM
[2] = second compound 0.0316 µM, first compound 0.1 µM
[3] = second compound 0.0316 µM, first compound 0.316 µM
[4] = second compound 0.0316 µM, first compound 1 µM
[5] = second compound 0.0316 µM, first compound 3.16 µM
[6] = second compound 0.0316 µM, first compound 10 µM
[7] = second compound 0.1 µM, first compound 0.0316 µM
[8] = second compound 0.1 µM, first compound 0.1 µM
[9] = second compound 0.1 µM, first compound 0.316 µM
[10] = second compound 0.1 µM, first compound 1 µM
[11] = second compound 0.1 µM, first compound 3.16 µM
[12] = second compound 0.1 µM, first compound 10 µM
[13] = second compound 0.316 µM, first compound 0.0316 µM
[14] = second compound 0.316 µM, first compound 0.1 µM
[15] = second compound 0.316 µM, first compound 0.316 µM
[16] = second compound 0.316 µM, first compound 1 µM
[17] = second compound 0.316 µM, first compound 3.16 µM
[18] = second compound 0.316 µM, first compound 10 µM
[19] = second compound 1 µM, first compound 0.0316 µM
[20] = second compound 1 µM, first compound 0.1 µM
[21] = second compound 1 µM, first compound 0.316 µM
[22] = second compound 1 µM, first compound 1 µM
[23] = second compound 1 µM, first compound 3.16 µM
[24] = second compound 1 µM, first compound 10 µM

IC50 (second compound 0.0316 µM): < 31.6 nM
IC50 (second compound 0.1 µM): < 31.6 nM
IC50 (second compound 0.316 µM): < 31.6 nM
IC50 (second compound 1 µM): < 31.6 nM
IC50 (second compound 3.16 µM): < 31.6 nM
IC50 (second compound 10 µM): < 31.6 nM
Structure (SMILES): CC(=O)OC12COC1CC(O)C1(C)C(=O)C(O)C3=C(C)C(OC(=O)C(O)C(NC(=O)OC(C)(C)C)c4ccccc4)CC(O)(C(OC(=O)c4ccccc4)C21)C3(C)C (stereo unspecified) + C#Cc1c(F)ccc2cc(O)cc(-c3ncc4c(N5CC6CCC(C5)N6)nc(OCC56CCCN5CC(F)C6)nc4c3F)c12
viability, T/C [1]: 0.76%
viability, T/C [2]: 1.3%
viability, T/C [3]: 1.24%
viability, T/C [4]: 1.01%
viability, T/C [5]: 1.67%
viability, T/C [6]: 0.89%
viability, T/C [7]: 1.76%
viability, T/C [8]: 0.93%
viability, T/C [9]: 1.5%
viability, T/C [10]: 1.51%
viability, T/C [11]: 1.27%
viability, T/C [12]: 0.89%
viability, T/C [13]: 1.1%
viability, T/C [14]: 0.78%
viability, T/C [15]: 1.16%
viability, T/C [16]: 1.88%
viability, T/C [17]: 1.5%
viability, T/C [18]: 0.79%
viability, T/C [19]: 1.5%
viability, T/C [20]: 0.8%
viability, T/C [21]: 1.05%
viability, T/C [22]: 2.04%
viability, T/C [23]: 1.33%
viability, T/C [24]: 0.88%
viability, T/C (second compound 3.16 µM, first compound 0.0316 µM): 1.91%
viability, T/C (second compound 3.16 µM, first compound 0.1 µM): 0.99%
viability, T/C (second compound 3.16 µM, first compound 0.316 µM): 1.37%
viability, T/C (second compound 3.16 µM, first compound 1 µM): 0.71%
viability, T/C (second compound 3.16 µM, first compound 3.16 µM): 1.08%
viability, T/C (second compound 3.16 µM, first compound 10 µM): 0.76%
viability, T/C (second compound 10 µM, first compound 0.0316 µM): 1.78%
viability, T/C (second compound 10 µM, first compound 0.1 µM): 0.88%
viability, T/C (second compound 10 µM, first compound 0.316 µM): 1.86%
viability, T/C (second compound 10 µM, first compound 1 µM): 1.55%
viability, T/C (second compound 10 µM, first compound 3.16 µM): 1.23%
viability, T/C (second compound 10 µM, first compound 10 µM): 0.77%

IC50 (second compound 0.000949 µM): 5990 nM
IC50 (second compound 0.003 µM): 5260 nM
IC50 (second compound 0.00949 µM): 1470 nM
IC50 (second compound 0.03 µM): < 31.6 nM
IC50 (second compound 0.0949 µM): < 31.6 nM
IC50 (second compound 0.3 µM): < 31.6 nM
Structure (SMILES): CC(Nc1ccc2c(c1)OCCn1cc(N3C(=O)OCC3C(F)F)nc1-2)C(N)=O (stereo unspecified) + CCn1c(-c2cc(N3CCN(C)CC3)cnc2C(C)OC)c2c3cc(ccc31)-c1csc(n1)CC(NC(=O)C1CC1C)C(=O)N1CCCC(N1)C(=O)OCC(C)(C)C2
viability, T/C (second compound 0.000949 µM, first compound 0.0316 µM): 100%
viability, T/C (second compound 0.000949 µM, first compound 0.1 µM): 97.5%
viability, T/C (second compound 0.000949 µM, first compound 0.316 µM): 109%
viability, T/C (second compound 0.000949 µM, first compound 1 µM): 97.9%
viability, T/C (second compound 0.000949 µM, first compound 3.16 µM): 86.2%
viability, T/C (second compound 0.000949 µM, first compound 10 µM): 20.9%
viability, T/C (second compound 0.003 µM, first compound 0.0316 µM): 94.3%
viability, T/C (second compound 0.003 µM, first compound 0.1 µM): 103%
viability, T/C (second compound 0.003 µM, first compound 0.316 µM): 107%
viability, T/C (second compound 0.003 µM, first compound 1 µM): 102%
viability, T/C (second compound 0.003 µM, first compound 3.16 µM): 78.5%
viability, T/C (second compound 0.003 µM, first compound 10 µM): 14.2%
viability, T/C (second compound 0.00949 µM, first compound 0.0316 µM): 110%
viability, T/C (second compound 0.00949 µM, first compound 0.1 µM): 114%
viability, T/C (second compound 0.00949 µM, first compound 0.316 µM): 102%
viability, T/C (second compound 0.00949 µM, first compound 1 µM): 61.2%
viability, T/C (second compound 0.00949 µM, first compound 3.16 µM): 24.8%
viability, T/C (second compound 0.00949 µM, first compound 10 µM): 2.76%
viability, T/C (second compound 0.03 µM, first compound 0.0316 µM): 32.1%
viability, T/C (second compound 0.03 µM, first compound 0.1 µM): 9.9%
viability, T/C (second compound 0.03 µM, first compound 0.316 µM): 4.54%
viability, T/C (second compound 0.03 µM, first compound 1 µM): 2.25%
viability, T/C (second compound 0.03 µM, first compound 3.16 µM): 0.96%
viability, T/C (second compound 0.03 µM, first compound 10 µM): 0.2%
viability, T/C (second compound 0.0949 µM, first compound 0.0316 µM): 1.56%
viability, T/C (second compound 0.0949 µM, first compound 0.1 µM): 0.81%
viability, T/C (second compound 0.0949 µM, first compound 0.316 µM): 0.54%
viability, T/C (second compound 0.0949 µM, first compound 1 µM): 0.47%
viability, T/C (second compound 0.0949 µM, first compound 3.16 µM): 0.37%
viability, T/C (second compound 0.0949 µM, first compound 10 µM): 0.1%
viability, T/C (second compound 0.3 µM, first compound 0.0316 µM): 0.89%
viability, T/C (second compound 0.3 µM, first compound 0.1 µM): 0.73%
viability, T/C (second compound 0.3 µM, first compound 0.316 µM): 0.48%
viability, T/C (second compound 0.3 µM, first compound 1 µM): 0.29%
viability, T/C (second compound 0.3 µM, first compound 3.16 µM): 0.33%
viability, T/C (second compound 0.3 µM, first compound 10 µM): 0.12%

IC50 (second compound 0.00316 µM): < 31.6 nM
IC50 (second compound 0.01 µM): < 31.6 nM
IC50 (second compound 0.0316 µM): < 31.6 nM
IC50 (second compound 0.1 µM): < 31.6 nM
IC50 (second compound 0.316 µM): < 31.6 nM
IC50 (second compound 1 µM): < 31.6 nM
Structure (SMILES): CC(=O)OC12COC1CC(O)C1(C)C(=O)C(O)C3=C(C)C(OC(=O)C(O)C(NC(=O)OC(C)(C)C)c4ccccc4)CC(O)(C(OC(=O)c4ccccc4)C21)C3(C)C (stereo unspecified) + C=CC(=O)N1CCN(c2nc(OCC3CCCN3C)nc3c(F)c(-c4nc(N)cc(C)c4C(F)(F)F)c(Cl)cc23)C(C)C1
viability, T/C (second compound 0.00316 µM, first compound 0.0316 µM): 0.81%
viability, T/C (second compound 0.00316 µM, first compound 0.1 µM): 0.73%
viability, T/C (second compound 0.00316 µM, first compound 0.316 µM): 1.35%
viability, T/C (second compound 0.00316 µM, first compound 1 µM): 2.03%
viability, T/C (second compound 0.00316 µM, first compound 3.16 µM): 1.42%
viability, T/C (second compound 0.00316 µM, first compound 10 µM): 1.11%
viability, T/C (second compound 0.01 µM, first compound 0.0316 µM): 1.77%
viability, T/C (second compound 0.01 µM, first compound 0.1 µM): 0.94%
viability, T/C (second compound 0.01 µM, first compound 0.316 µM): 1.67%
viability, T/C (second compound 0.01 µM, first compound 1 µM): 1.93%
viability, T/C (second compound 0.01 µM, first compound 3.16 µM): 1.54%
viability, T/C (second compound 0.01 µM, first compound 10 µM): 1.19%
viability, T/C [1]: 1.41%
viability, T/C [2]: 1.13%
viability, T/C [3]: 1.31%
viability, T/C [4]: 1.79%
viability, T/C [5]: 1.72%
viability, T/C [6]: 0.97%
viability, T/C [7]: 2.46%
viability, T/C [8]: 1.76%
viability, T/C [9]: 0.8%
viability, T/C [10]: 2.06%
viability, T/C [11]: 1.88%
viability, T/C [12]: 1.11%
viability, T/C [13]: 0.97%
viability, T/C [14]: 1.22%
viability, T/C [15]: 0.89%
viability, T/C [16]: 2.24%
viability, T/C [17]: 1.05%
viability, T/C [18]: 1.06%
viability, T/C [19]: 2.41%
viability, T/C [20]: 1.89%
viability, T/C [21]: 1.45%
viability, T/C [22]: 0.87%
viability, T/C [23]: 1.43%
viability, T/C [24]: 1.17%
